Assay [1] relates to T-cell. Kind of assay: CD25 cell surface staining on T-cells stimulated with anti-CD3 antibody alone (Biological Example 2). In kind it is cell-based. The conditions noted are these: primary human total T-cells, baseline = anti-CD3/anti-CD28 stimulated cells without inhibitor, read-out: CD25 staining, Anti-CD3 stimulation, fold change over baseline; for fold induction at 1 µM: 1 μM compound; for fold induction at 8 µM: 8 μM compound.

For assay [2], the system named is T-cell. Description: IL-2 secretion from T-cells co-stimulated with anti-CD3 and anti-CD28 antibody (Biological Example 2). In kind it is cell-based, human. The settings on record: Homo sapiens, T-cell, primary human total T-cells, baseline = anti-CD3/anti-CD28 stimulated cells without inhibitor, read-out: IL-2 secretion, Anti-CD3/Anti-CD28 stimulation, fold change over baseline; for fold induction at 0.3 µM: 0.3 μM compound; for fold induction at 1 µM: 1 μM compound; for fold induction at 4 µM: 4 μM compound. The essentials:
(§1)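 No assay protocol given; T-cells stimulated with anti-CD3 alone or anti-CD3 plus anti-CD28, with or without Cbl-b inhibitor. Activation read as IL-2 secretion or CD25 surface staining, expressed as fold over baseline from uninhibited cells […].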

The target in assay [3] is T1, Cbl-b (Homo sapiens, UniProt Q13191). Kind of assay: Cbl-b inhibition assay (Cbl-b activity assay, FRET, Biological Example 1; 100 mM NaCl, 60 nM Src kinase). In kind it is biochemical. The settings on record: upper bound stated in text lists; read-out: IC50 values in the Cbl-b inhibition assay of Biological Example 1. The essentials: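 TR-FRET assay using N-terminal biotinylated Avi-tagged Cbl-b bound to streptavidin-terbium, Src kinase for Cbl-b phosphorylation, and UbcH5B irreversibly conjugated to Bodipy-Fluorescein-ubiquitin. Phosphorylated Cbl-b binds UbcH5B-Ub, bringing the fluorophores together; inhibition is read as loss of FRET signal.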

Assay [4] relates to T-cell. Description: IL-2 secretion from T-cells stimulated with anti-CD3 antibody alone (Biological Example 2). In kind it is cell-based. The conditions noted are these: primary human total T-cells, read-out: IL-2 secretion, Anti-CD3 stimulation, fold change over baseline; for fold induction at 1 µM: 1 μM compound; for fold induction at 8 µM: 8 μM compound.
Assay [5] relates to T-cell. Description: CD25 cell surface staining on T-cells co-stimulated with anti-CD3 and anti-CD28 antibody (Biological Example 2). In kind it is cell-based, human. The conditions noted are these: Homo sapiens, T-cell, primary human total T-cells, baseline = anti-CD3/anti-CD28 stimulated cells without inhibitor, read-out: CD25 staining, Anti-CD3/Anti-CD28 stimulation, fold change over baseline; for fold induction at 0.3 µM: 0.3 μM compound; for fold induction at 1 µM: 1 μM compound; for fold induction at 4 µM: 4 μM compound. The essentials:
as §1

Assay [6] deals with T1, Cbl-b. Kind of assay: Cbl-b activity assay (Cbl-b inhibition assay), TR-FRET of Cbl-b interaction with UbcH5B-Ub. In kind it is biochemical. The conditions noted are these: assay buffer with 100 mM NaCl, 60 nM Src kinase; read-out: Cbl-b activity IC50. The essentials:
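TR-FRET readout of Cbl-b binding to Bodipy-fluorescein N-terminally labeled Ub conjugated to UbcH5B C85K, measured with compound present. After compound incubation, 60 nM Src kinase with 1 mM ATP and 5 mM MgCl2 (final) was added for 1.5 h, then a further 1 h incubation; asterisked values used 50 mM NaCl buffer and 30 nM Src.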
Background: In TR-FRET formats the signal depends on donor and acceptor labels being close together.

This note sets out measurements from patent publication US20220324835A1 (Nurix Therapeutics, Inc., priority 2018, published 2022).

Broadly, the IC50 is the point on the concentration scale where inhibition reaches its midpoint.

The structures appear in SMILES notation. A value given as a limit tells only on which side of the number the result lay.

T1 sequence (Q13191 36-427): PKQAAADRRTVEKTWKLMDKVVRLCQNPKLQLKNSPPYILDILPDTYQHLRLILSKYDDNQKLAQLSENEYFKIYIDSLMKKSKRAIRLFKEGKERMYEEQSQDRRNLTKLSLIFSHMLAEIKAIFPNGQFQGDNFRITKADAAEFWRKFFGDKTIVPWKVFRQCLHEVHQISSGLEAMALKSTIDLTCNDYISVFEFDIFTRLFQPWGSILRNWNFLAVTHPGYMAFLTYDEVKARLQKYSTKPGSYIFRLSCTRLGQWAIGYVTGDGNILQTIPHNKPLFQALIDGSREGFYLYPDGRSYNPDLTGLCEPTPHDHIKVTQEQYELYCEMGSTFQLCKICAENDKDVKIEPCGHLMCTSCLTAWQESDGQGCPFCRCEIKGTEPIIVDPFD

With `C[C@H](Cc1nocc1C(F)(F)F)c1cccc(N2Cc3c(cc(C(=O)N4CC[C@H](O)C4)cc3C(F)(F)F)C2=O)c1` [Compound 484, 6-[(3S)-3-hydroxypyrrolidine-1-carbonyl]-4-(trifluoromethyl)-2-[3-[(2R)-1-[4-(trifluoromethyl)-1,2-oxazol-3-yl]propan-2-yl]phenyl]-2,3-dihydro-1H-isoindol-1-one], the fold induction at 1 µM in assay [1] is 0.601 to 0.8; in assay [2] it was 1.01 to 2.5; in assay [4] it was 0.051 to 0.1; in assay [5] it was 1.01 to 1.3. Moreover, the values for the fold induction at 8 µM in assay [1] and in assay [4] were more than 1 and more than 0.201, respectively. Also, the values for the fold induction at 0.3 µM in assay [2] and in assay [5] were 1.01 to 2.5 and 1.01 to 1.3, respectively. Besides, the fold induction at 4 µM lay within 2.51 to 5 in assay [2] and 1.31 to 1.5 in assay [5]. Further, the half-maximal inhibitory concentration (IC50) was not above 300 nM in assay [3] and 100 to 300 nM in assay [6].
In the case of `C[C@H](Cc1nocc1C(F)(F)F)c1cccc(N2Cc3c(cc(CN4CC[C@H](F)C4)cc3C(F)(F)F)C2=O)c1` [Compound 485, 6-[[(3S)-3-fluoropyrrolidin-1-yl]methyl]-4-(trifluoromethyl)-2-[3-[(2R)-1-[4-(trifluoromethyl)-1,2-oxazol-3-yl]propan-2-yl]phenyl]-2,3-dihydro-1H-isoindol-1-one], the fold induction at 1 µM was 0.601 to 0.8 in assay [1], 1.01 to 2.5 in assay [2], less than 0.05 in assay [4] and 1.01 to 1.3 in assay [5]. Moreover, the fold induction at 8 µM is more than 1 in assay [1] and 0.101 to 0.15 in assay [4]. In addition, the fold induction at 0.3 µM in assay [2] is 1.01 to 2.5; in assay [5] it was 1.01 to 1.3. Further, the fold induction at 4 µM in assay [2] lay in the range of 2.51 to 5; in assay [5], 1.31 to 1.5. Also, the figures for the half-inhibitory concentration (IC50) in assay [3] and in assay [6] were not above 300 nM and 100 to 300 nM, respectively.
With `Cn1cnnc1CC1(c2cccc(N3Cc4c(cc(CN5CCCC6CC65)cc4C(F)(F)F)C3=O)c2)COC1` (stereo not drawn) [Compound 490, 6-((2-azabicyclo[4.1.0]heptan-2-yl)methyl)-2-(3-(3-((4-methyl-4H-1,2,4-triazol-3-yl)methyl)oxetan-3-yl)phenyl)-4-(trifluoromethyl)isoindolin-1-one], the fold induction at 1 µM in assay [1] is more than 1; in assay [2] it was more than 7.5; in assay [4], more than 0.201; in assay [5] it was 1.01 to 1.3. For the same molecule, the fold induction at 0.3 µM is more than 7.5 in assay [2] and 1.01 to 1.3 in assay [5]. Further, the half-inhibitory concentration (IC50) in assay [3] is not above 100 nM; in assay [6], less than 100 nM.
As to `Cn1cnnc1CC1(c2cccc(N3Cc4c(cc(CN5CC6CC6(C)C5)cc4C(F)(F)F)C3=O)c2)COC1` (stereo not drawn) [Compound 491, 6-((1-methyl-3-azabicyclo[3.1.0]hexan-3-yl)methyl)-2-(3-(3-((4-methyl-4H-1,2,4-triazol-3-yl)methyl)oxetan-3-yl)phenyl)-4-(trifluoromethyl)isoindolin-1-one], the fold induction at 1 µM in assay [1] is more than 1; in assay [2], more than 7.5; in assay [4], more than 0.201; in assay [5], 1.01 to 1.3. Further, the fold induction at 0.3 µM was more than 7.5 in assay [2] and 1.01 to 1.3 in assay [5]. Moreover, the 50% inhibitory concentration (IC50) in assay [3] was not above 100 nM; in assay [6], less than 100 nM.
For the molecule `Cn1cnnc1CC1(c2cccc(NC(=O)c3csc(C(F)(F)F)n3)c2)COC1` [Compound 492, N-(3-{3-[(4-methyl-1,2,4-triazol-3-yl)methyl]oxetan-3-yl}phenyl)-2-(trifluoromethyl)-1,3-thiazole-4-carboxamide], the fold induction at 1 µM lay in the range of 0.601 to 0.8 in assay [1], 1.01 to 2.5 in assay [2], 0.051 to 0.1 in assay [4] and 1.01 to 1.3 in assay [5]. The fold induction at 0.3 µM in assay [2] lay within 1.01 to 2.5; in assay [5], 1.01 to 1.3. In addition, the IC50 in assay [3] was not above 100 nM; in assay [6] it was less than 100 nM.
